Measurements published in patent US11760744B2, “Fused ring compounds” (Genentech, Inc., priority 2018, dated 2023).

Experiments:
[1] = molecular target: T1, K-Ras G12C (Homo sapiens, UniProt P01116, G12C); experiment: Western blot assay for in cell alkylation of K-Ras G12C (HCC1171 cells); assay type: cell-based; set-up: endogenous in cells; host or cells: HCC1171; settings: 18 hours at 37° C., 7 point dose response
Procedure: Western Blot Assay for in Cell Alkylation of K-Ras G12C
HCC1171 cells were maintained in RPMI1640 supplemented with 10% FBS. Cells were plated in a 96-well plate at 20,000 cells/well and the following day compounds were added to the cells. After 18 hours at 37° C., cells were lysed in RIPA buffer (Sigma R0278) with 0.5% SDS and protease/phosphatase inhibitor cocktail. After through mixing to enable complete lysis, the lysates were cleared by centrifugation before 20 μl was transferred from each well and combined with loading buffer and reducing agent. After heating for 10 minutes at 95° C., 15 μl of each sample was loaded onto a 4-20% Tris-Glycine gel and electrophoresed at 110V for 165 minutes in SDS-PAGE running buffer. Gels were transferred to a nitrocellulose membrane, blocked for 1 hour and stained overnight at 4° C. with primary antibody against K-Ras (polyclonal Proteintech 12063-1-AP). The membrane was then washed thoroughly and counterstained with anti-rabbit IRDye 800CW (LI-COR 926-32211) for one hour at room temperature. After final washes, the membrane was imaged on a LI-COR Odyssey CLx at medium resolution. Alkylated K-Ras was visible by an electrophoretic shift from unmodified K-Ras. To quantify this affect, the LICOR software was used to draw a rectangle over alkylated and unalkylated bands for each well and measured the total fluorescent intensity (FI) in each of these bands. The following formula was then used to calculate % alkylation: FI(alkylated)/(FI(alkylated)+FI(unalkylated))*100 for each well.
A 7 point dose response curve was used to determine the IC50 for each compound. Cell alkylation data are presented below in Table 2.
Target sequence in this assay (P01116 1-188 isoform P01116-2 G12C): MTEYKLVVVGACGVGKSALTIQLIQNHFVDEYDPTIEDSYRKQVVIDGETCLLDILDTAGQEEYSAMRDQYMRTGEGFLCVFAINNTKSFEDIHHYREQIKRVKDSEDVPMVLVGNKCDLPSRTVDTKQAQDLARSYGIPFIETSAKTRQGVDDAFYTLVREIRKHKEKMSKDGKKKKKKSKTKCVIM

[2] = molecular target: T1, K-Ras G12C; experiment: K-Ras G12C, SOS1, Raf RBD HTRF assay for inhibition of GTP exchange; assay type: biochemical; set-up: K-Ras G12C (residues 2-188) and SOS1 (residues 564-1049) had N-terminal 6-His; made in house; host or cells: E. coli; settings: 18 hours preincubation with K-Ras G12C at room temperature; SOS1-mediated GTP exchange
Procedure: K-Ras G12C, SOS1, Raf RBD Homogeneous Time Resolved Fluorescence (HTRF) Assay for Inhibition of GTP Exchange
After 18 hours at room temperature, the SOS1 GTP exchange factor (1.67 nM during exchange, 1.25 nM final) was added to initiate nucleotide exchange to GTP (200 μM during exchange, 150 μM final). The level of GTP exchange was assessed by addition of a Ras binding domain derived from C-Raf and the HTRF detection antibodies Tb-anti-FLAG and D2-anti-his (Cis-Bio) at 50 nM, 1 nM and 12.5 nM, respectively. After 2 hours, the ratio of 665 nm to 615 nm emission with 320 nm excitation was measured on an Envision plate reader (Perkin Elmer).
The final reaction volume was 20 μl in a ProxiPlate-384F Plus (Perkin Elmer), in buffer containing 20 mM HEPES, 150 mM NaCl, 1 mM MgCl2, 0.1% BSA, 0.03% Tween-20 and 1 mM DTT. […] HTRF data are presented below in Table 2.
Target sequence in this assay (P01116 2-188 isoform P01116-2 G12C): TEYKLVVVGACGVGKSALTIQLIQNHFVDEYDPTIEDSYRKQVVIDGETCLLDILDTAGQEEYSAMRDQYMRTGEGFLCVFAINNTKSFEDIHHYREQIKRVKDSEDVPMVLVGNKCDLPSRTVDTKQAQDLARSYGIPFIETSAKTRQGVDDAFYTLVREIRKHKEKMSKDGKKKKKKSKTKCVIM

Structure (SMILES) | EC50 [1] [nM] | IC50 [2] [nM]
C=C(F)C(=O)N1CCN(c2nc(OC[C@@H]3CCCN3C)nc3c2CCC(c2cc(O)cc4ccccc24)C3)CC1CC#N (mixture of isomers) [Example 61a, 2-(1-(2-fluoroacryloyl)-4-(7-(3-hydroxynaphthalen-1-yl)-2-(((S)-1-methylpyrrolidin-2-yl)methoxy)-5,6,7,8-tetrahydroquinazolin-4-yl)piperazin-2-yl)acetonitrile] | 16 | 38
CN1CCC[C@H]1COc1nc2c(c(N3CCN(C(=O)/C=C/CF)C(CC#N)C3)n1)CCC(c1cc(O)cc3ccccc13)C2 (mixture of isomers) [Example 62a, 2-(1-((E)-4-fluorobut-2-enoyl)-4-(7-(3-hydroxynaphthalen-1-yl)-2-(((S)-1-methylpyrrolidin-2-yl)methoxy)-5,6,7,8-tetrahydroquinazolin-4-yl)piperazin-2-yl)acetonitrile] | 14 | 18
C=CC(=O)N1CCN(c2ncnc3c2C[C@@H](C)[C@@H](c2nc(N)cc(C)c2C(F)(F)F)C3)CC1 (single isomer, unassigned) [Example 1a] | 10000 | > 50000
C=CC(=O)N1CCN(c2ncnc3c2C[C@H](C)[C@H](c2nc(N)cc(C)c2C(F)(F)F)C3)CC1 (single isomer, unassigned) [Example 1b] | 10000 | > 50000
C=CC(=O)N1CCN(c2ncnc3c2CC[C@@H](c2nc(N)cc4ccccc24)C3)CC1 (single isomer, unassigned) [Example 3a] | 30000 | > 50000
C=CC(=O)N1CCN(c2ncnc3c2CC[C@H](c2nc(N)cc4ccccc24)C3)CC1 (single isomer, unassigned) [Example 3b] | 5500 | 710
C=CC(=O)N1CCN(c2ncnc3c2C[C@H](C)[C@@H](c2cc(CO)ccc2C)C3)CC1 (single isomer, unassigned) [Example 4a] | – | > 50000
C=CC(=O)N1CCN(c2ncnc3c2C[C@@H](C)[C@H](c2cc(CO)ccc2C)C3)CC1 (single isomer, unassigned) [Example 4b] | 1300 | 390
C=CC(=O)N1CCN(c2nc(OC[C@@H]3C[C@@H](F)CN3C)nc3c2C[C@H](C)[C@@H](c2nc(NC)cc(C)c2C(F)(F)F)C3)[C@@H](C)C1 (single isomer, unassigned) [Example 5a] | – | > 20000
C=CC(=O)N1CCN(c2nc(OC[C@@H]3C[C@@H](F)CN3C)nc3c2C[C@@H](C)[C@H](c2nc(NC)cc(C)c2C(F)(F)F)C3)[C@@H](C)C1 (single isomer, unassigned) [Example 5b] | 180 | 45
C=CC(=O)N1CCN(c2ncnc3c2CC[C@H](c2cccc4c2CCC4)C3)CC1 (single isomer, unassigned) [Example 6a] | – | 2300
C=CC(=O)N1CCN(c2ncnc3c2CC[C@@H](c2cccc4c2CCC4)C3)CC1 (single isomer, unassigned) [Example 6b] | – | > 50000
C=CC(=O)N1CCN(c2ncnc3c2C[C@H](C)[C@@H](c2nc(N)cc(C)c2C(F)(F)F)C3)CC1 (single isomer, unassigned) [Example 8a] | – | 3500
C=CC(=O)N1CCN(c2ncnc3c2C[C@@H](C)[C@H](c2nc(N)cc(C)c2C(F)(F)F)C3)CC1 (single isomer, unassigned) [Example 8b] | 89 | 45
C=CC(=O)N1CCN(c2ncnc3c2CC[C@H](c2c(C)ccc4c2COC4)C3)CC1 (single isomer, unassigned) [Example 9a] | – | 4200
C=CC(=O)N1CCN(c2ncnc3c2CC[C@@H](c2c(C)ccc4c2COC4)C3)CC1 (single isomer, unassigned) [Example 9b] | – | > 50000
C=CC(=O)N1CCN(c2ncnc3c2CC[C@@H](c2c(C)c(C)cc4[nH]cnc24)C3)CC1 (single isomer, unassigned) [Example 10a] | – | 19000

Structure (SMILES) | EC50 [1] [nM] | IC50 [2] [nM]
C=CC(=O)N1CCN(c2ncnc3c2CC[C@H](c2c(C)c(C)cc4[nH]cnc24)C3)CC1 (single isomer, unassigned) [Example 10b] | 1000 | 270
C=CC(=O)N1CCN(c2nc(OC[C@@H]3CCCN3C)nc3c2C[C@H](C)[C@@H](c2c(C)c(C)cc(N)c2F)C3)[C@@H](C)C1 (single isomer, unassigned) [Example 11a] | – | 1300
C=CC(=O)N1CCN(c2nc(OC[C@@H]3CCCN3C)nc3c2C[C@@H](C)[C@H](c2c(C)c(C)cc(N)c2F)C3)[C@@H](C)C1 (single isomer, unassigned) [Example 11b] | 47 | < 10
C=CC(=O)N1CCN(c2nc(OC[C@@H]3CCCN3C)nc3c2C[C@H](C)[C@@H](c2c(F)c(N)cc(C)c2C(F)(F)F)C3)[C@@H](C)C1 (single isomer, unassigned) [Example 12a] | 1100 | 610
C=CC(=O)N1CCN(c2ncnc3c2CC[C@@H](c2c(F)c(N)cc(F)c2C(F)(F)F)C3)CC1 (single isomer, unassigned) [Example 13a] | – | 2000
C=CC(=O)N1CCN(c2ncnc3c2CC[C@H](c2c(F)c(N)cc(F)c2C(F)(F)F)C3)CC1 (single isomer, unassigned) [Example 13b] | 690 | 84
CNC/C=C/C(=O)N1CCN(c2ncnc3c2C[C@H](C)[C@@H](c2c(C)ccc4[nH]ncc24)C3)CC1 (single isomer, unassigned) [Example 19b] | – | > 30000
C=CC(=O)N1CCN(c2nc(OC[C@@H]3C[C@@H](F)CN3C)nc3c2C[C@H](C)[C@@H](c2nc(N)cc(C)c2C2CC2)C3)[C@@H](C)C1 (single isomer, unassigned) [Example 24a] | – | > 50000
C=CC(=O)N1CCN(c2ncnc3c2CC[C@@H](c2c(F)c(N)cc(C)c2C(F)(F)F)C3)CC1 (single isomer, unassigned) [Example 27b] | – | 3000
C=CC(=O)N1CCN(c2nc(OC[C@@H]3C[C@H](F)CN3C)nc3c2CC[C@@H](c2cc(O)cc4ccccc24)C3)[C@@H](C)C1 (single isomer, unassigned) [Example 30b] | – | 1200
C=CC(=O)N1CCN(c2ncnc3c2C[C@H](C)[C@@H](c2nc(N)ccc2C(F)(F)F)C3)CC1 (single isomer, unassigned) [Example 42a] | – | 2700
C=CC(=O)N1CCN(c2ncnc3c2CC[C@@H](c2nc(N)ccc2C(F)(F)F)C3)CC1 (single isomer, unassigned) [Example 46a] | – | 2000
C=C(F)C(=O)N1CCN(c2nc(OC[C@@H]3CCCN3C)nc3c2CCC(c2cccc4ccccc24)C3)CC1CC#N (single isomer, unassigned) [Example 47b] | – | 1500
C=CC(=O)N1CCN(c2nc(OC[C@@H]3COC(=O)N3C)nc3c2CC[C@@H](c2cc(O)cc4ccccc24)C3)[C@@H](C)C1 (single isomer, unassigned) [Example 57b] | – | 14000
C=CC(=O)N1CCN(c2nc(OC[C@@H]3CCCN3C)nc3c2CCCC3)CC1 [Example 45a, 1-[4-[2-[[(2S)-1-methylpyrrolidin-2-yl]methoxy]-5,6,7,8-tetrahydroquinazolin-4-yl]piperazin-1-yl]prop-2-en-1-one] | – | > 50000
C=CC(=O)N1CCN(c2nc(OCc3cn(C)cn3)nc3c2CCC(c2cc(O)cc4ccccc24)C3)[C@@H](C)C1 (stereo partly drawn) [Example 54a, 1-((3S)-4-(7-(3-hydroxynaphthalen-1-yl)-2-((1-methyl-1H-imidazol-4-yl)methoxy)-5,6,7,8-tetrahydroquinazolin-4-yl)-3-methylpiperazin-1-yl)prop-2-en-1-one] | – | 470
